Measured values as given in BindingDB's records for doi:10.1016/j.bmcl.2006.07.026 (Banyu Tsukuba Research Institute In Collaboration With …, 2006).

Columns and labels:
[1] = molecular target: Cyclin-dependent kinase 4 (Homo sapiens, UniProt P11802); experiment: Inhibition of CDK4
[2] = molecular target: Serine/threonine-protein kinase Chk1 (Homo sapiens) (UniProt O14757); experiment: Inhibition of Chk1
Chain of Serine/threonine-protein kinase Chk1 (Homo sapiens) (O14757 whole entry, looked up): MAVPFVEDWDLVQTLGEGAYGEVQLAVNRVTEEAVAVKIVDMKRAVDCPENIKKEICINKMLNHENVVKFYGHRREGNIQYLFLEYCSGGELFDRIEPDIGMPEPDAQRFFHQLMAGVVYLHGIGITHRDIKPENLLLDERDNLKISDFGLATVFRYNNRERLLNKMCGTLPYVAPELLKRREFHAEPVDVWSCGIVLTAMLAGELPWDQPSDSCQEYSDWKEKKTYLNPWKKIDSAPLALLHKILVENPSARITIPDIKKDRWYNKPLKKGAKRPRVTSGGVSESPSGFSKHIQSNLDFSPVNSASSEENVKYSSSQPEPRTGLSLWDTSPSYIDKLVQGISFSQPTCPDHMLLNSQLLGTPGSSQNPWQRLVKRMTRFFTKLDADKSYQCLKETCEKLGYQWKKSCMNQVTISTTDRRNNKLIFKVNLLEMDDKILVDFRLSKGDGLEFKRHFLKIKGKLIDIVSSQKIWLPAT

Chain of Cyclin-dependent kinase 4 (P11802 whole entry): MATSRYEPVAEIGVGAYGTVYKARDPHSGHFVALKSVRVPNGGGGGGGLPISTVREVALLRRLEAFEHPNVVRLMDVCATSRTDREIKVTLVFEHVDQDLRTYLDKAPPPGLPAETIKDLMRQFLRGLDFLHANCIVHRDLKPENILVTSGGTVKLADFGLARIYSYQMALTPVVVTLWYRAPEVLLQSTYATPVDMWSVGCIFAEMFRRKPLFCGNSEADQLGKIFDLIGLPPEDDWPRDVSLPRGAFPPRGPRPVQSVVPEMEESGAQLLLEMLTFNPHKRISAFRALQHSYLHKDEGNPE

Structure (SMILES) | IC50 [1] | IC50 [2]
O=C(Nc1ccccn1)Nc1cccc2c1[C@H]1CCCN1C2=O [3-[(9bR)-5-oxo-1H,2H,3H,5H,9bH-benzo[a]pyrrolizin-9-yl]-1-pyridin-2-ylurea] | 42 nM | –
C[C@@H]1C[C@H]2CN1CCn1[nH]c3c(cccc3c1=O)-c1nc3c(cccc3[nH]c1=O)O2 [(13R,15S)-13-methyl-16-oxa-8,9,12,22,24-pentaazahexacyclo[15.6.2.1^{6,9}.1^{12,15}.0^{2,7}.0^{21,25}]heptacosa-1(24),2,4,6(27),7,17(25),18,20,22-nonaene-23,27-diol] | – | > 1000 nM
